Common to all, as to assay type: biochemical
One assay deals with T1, human Yes1 enzyme (Homo sapiens, UniProt P07947).
T1 construct: made in house
The assay is described as follows: Yes1 enzyme inhibitory activity (time-resolved fluorometry, biotinylated peptide phosphorylation). The settings on record: read-out: YES_IC50. In short, it runs like this: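 Inhibition was expressed against a compound-free control to give IC50, using TR-FRET read-out (Eu-cryptate anti-pTyr antibody, streptavidin-XL665).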

A further assay concerns the target T2, human Lck enzyme (Homo sapiens, UniProt P06239).
T2 construct: purchased Carna Biosciences, Inc. 08-170
The assay is described as follows: Lck enzyme inhibitory activity (time-resolved fluorometry, biotinylated peptide phosphorylation). Conditions: read-out: LCK_IC50. In short, it runs like this: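 Readout pairs a europium cryptate-labelled anti-phosphotyrosine antibody with XL665-streptavidin, measured by time-resolved fluorescence. IC50 derived from percent inhibition against untreated controls.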

Another assay has as its target T3, human Src enzyme (Homo sapiens, UniProt P12931).
T3 construct: purchased Carna Biosciences, Inc. 08-173
In words: Src enzyme inhibitory activity (time-resolved fluorometry, biotinylated peptide phosphorylation). The settings on record: read-out: SRC_IC50. In short, it runs like this: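 Compounds were tested for blocking tyrosine phosphorylation of a biotinylated peptide substrate by recombinant human Src. Phosphorylated product was quantified by time-resolved fluorometry using europium cryptate and XL665 conjugates, and IC50 was calculated against the compound-free control.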

The mark [1] stands for this setting: biotinylated peptide phosphorylation.

Read-outs that look alike come from different tables or passages of the source.

T2 sequence (P06239 whole entry): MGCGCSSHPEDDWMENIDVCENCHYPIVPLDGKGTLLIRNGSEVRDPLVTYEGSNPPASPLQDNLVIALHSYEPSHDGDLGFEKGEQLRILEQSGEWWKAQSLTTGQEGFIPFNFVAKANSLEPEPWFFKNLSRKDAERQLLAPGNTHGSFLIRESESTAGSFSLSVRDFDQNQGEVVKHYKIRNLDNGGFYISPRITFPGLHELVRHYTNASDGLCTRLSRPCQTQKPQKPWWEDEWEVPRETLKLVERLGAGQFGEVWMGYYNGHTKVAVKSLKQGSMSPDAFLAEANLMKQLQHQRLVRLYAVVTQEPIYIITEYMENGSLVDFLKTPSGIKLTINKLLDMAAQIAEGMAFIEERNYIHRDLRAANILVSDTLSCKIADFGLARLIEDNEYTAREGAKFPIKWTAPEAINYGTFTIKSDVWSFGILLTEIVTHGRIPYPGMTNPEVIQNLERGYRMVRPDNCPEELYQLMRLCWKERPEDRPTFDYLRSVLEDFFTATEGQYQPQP
T1 sequence (P07947 whole entry): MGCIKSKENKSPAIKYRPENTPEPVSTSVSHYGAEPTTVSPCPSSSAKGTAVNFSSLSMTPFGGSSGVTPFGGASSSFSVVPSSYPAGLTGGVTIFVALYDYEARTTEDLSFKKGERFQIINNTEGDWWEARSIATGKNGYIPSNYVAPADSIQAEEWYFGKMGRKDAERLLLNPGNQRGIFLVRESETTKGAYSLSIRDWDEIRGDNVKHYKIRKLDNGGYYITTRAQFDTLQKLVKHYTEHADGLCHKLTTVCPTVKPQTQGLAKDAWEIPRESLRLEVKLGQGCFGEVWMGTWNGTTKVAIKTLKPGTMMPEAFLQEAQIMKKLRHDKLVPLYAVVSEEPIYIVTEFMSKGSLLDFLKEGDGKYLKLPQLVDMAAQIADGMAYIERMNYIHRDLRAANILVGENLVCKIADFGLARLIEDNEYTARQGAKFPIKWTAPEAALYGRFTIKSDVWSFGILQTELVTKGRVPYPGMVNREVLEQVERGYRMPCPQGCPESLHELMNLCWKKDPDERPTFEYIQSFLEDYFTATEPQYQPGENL
T3 sequence (P12931 whole entry): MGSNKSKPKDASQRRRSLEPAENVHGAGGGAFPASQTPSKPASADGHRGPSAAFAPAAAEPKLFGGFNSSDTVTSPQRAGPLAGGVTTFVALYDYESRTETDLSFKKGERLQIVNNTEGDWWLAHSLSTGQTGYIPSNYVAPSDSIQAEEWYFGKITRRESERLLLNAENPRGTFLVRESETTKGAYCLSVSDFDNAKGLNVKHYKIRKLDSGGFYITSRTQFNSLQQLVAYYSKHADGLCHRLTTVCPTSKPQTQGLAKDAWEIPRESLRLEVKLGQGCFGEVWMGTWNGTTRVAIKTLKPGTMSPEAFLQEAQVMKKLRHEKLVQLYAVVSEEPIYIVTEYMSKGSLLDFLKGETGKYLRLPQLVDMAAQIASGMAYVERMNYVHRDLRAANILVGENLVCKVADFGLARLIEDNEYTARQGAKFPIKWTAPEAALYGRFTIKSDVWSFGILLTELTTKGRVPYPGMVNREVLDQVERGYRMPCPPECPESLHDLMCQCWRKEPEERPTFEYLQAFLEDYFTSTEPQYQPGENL

On to `Cc1cc(Oc2ccccc2F)ncc1-n1ncc(C(=O)c2cc3cc(OC(F)F)c(NS(=O)(=O)C4CC4)cc3[nH]2)c1N` [Example 4-24-007, N-[2-[5-amino-1-[6-(2-fluorophenoxy)-4-methylpyridin-3-yl]pyrazole-4-carbonyl]-5-(difluoromethoxy)-1H-indol-6-yl]cyclopropanesulfonamide], for which the IC50 at human Yes1 enzyme (setting [1]) amounted to 4 nM; at human Lck enzyme (setting [1]), 61 nM; on human Src enzyme (setting [1]), 230 nM.

Take `Cc1cc2cc(C(=O)c3cnn(-c4cnc(Oc5ccccc5F)cc4C)c3N)[nH]c2cc1NS(=O)(=O)c1cc(C#N)cc(C(F)(F)F)c1` [Example 5-1-499, N-[2-[5-amino-1-[6-(2-fluorophenoxy)-4-methylpyridin-3-yl]pyrazole-4-carbonyl]-5-methyl-1H-indol-6-yl]-3-cyano-5-(trifluoromethyl)benzenesulfonamide]: the values for the IC50 at human Yes1 enzyme (setting [1]), at human Lck enzyme (setting [1]) and at human Src enzyme (setting [1]) were 16 nM, 550 nM and 1800 nM, respectively.

In the case of `Cc1cc(Oc2c(F)cccc2F)ncc1-n1ncc(C(=O)c2cc3cc(OCC(F)F)c(NS(=O)(=O)C4CCCCC4)cc3[nH]2)c1N` [Example 5-1-315, N-[2-[5-amino-1-[6-(2,6-difluorophenoxy)-4-methylpyridin-3-yl]pyrazole-4-carbonyl]-5-(2,2-difluoroethoxy)-1H-indol-6-yl] cyclohexanesulfonamide], the IC50 on human Yes1 enzyme was found to be 8.1 nM; at human Lck enzyme, 130 nM; at human Src enzyme, 330 nM.

Consider `Cc1cc(Oc2c(F)cccc2F)ncc1-n1ncc(C(=O)c2cc3cc(F)c(NC4CCN(S(C)(=O)=O)CC4)cc3[nH]2)c1N` [Example 5-1-113, [5-amino-1-[6-(2,6-difluorophenoxy)-4-methylpyridin-3-yl]pyrazol-4-yl]-[5-fluoro-6-[(1-methylsulfonylpiperidin-4-yl)amino]-1H-indol-2-yl]methanone], for which the IC50 was 3.9 nM at human Yes1 enzyme, 3.3 nM at human Lck enzyme and 41 nM at human Src enzyme.

For `Cc1cc2cc(C(=O)c3cnn(-c4cnc(Oc5c(F)cccc5F)cc4C)c3N)[nH]c2cc1N1C(=O)NC2(CCN(Cc3ccccc3)CC2)C1=O` [Example 5-1-361, 3-[2-[5-amino-1-[6-(2,6-difluorophenoxy)-4-methylpyridin-3-yl]pyrazole-4-carbonyl]-5-methyl-1H-indol-6-yl]-8-benzyl-1,3,8-triazaspiro[4.5]decane-2,4-dione], the IC50 on human Yes1 enzyme is 9.2 nM; on human Lck enzyme, 26 nM; on human Src enzyme it was 170 nM.

In the case of `Cc1cc(Oc2ccccc2F)ccc1-n1ncc(C(=O)c2cc3cc(O)c(NS(C)(=O)=O)cc3[nH]2)c1N` [Example 5-1-061, N-[2-[5-amino-1-[4-(2-fluorophenoxy)-2-methylphenyl]pyrazole-4-carbonyl]-5-hydroxy-1H-indol-6-yl]methanesulfonamide], the IC50 on human Yes1 enzyme worked out at 0.96 nM; on human Lck enzyme, 7 nM; at human Src enzyme, 12 nM.

Consider `Cc1cc(Oc2ccccc2F)ncc1-n1ncc(C(=O)c2cc3cc(OCC(F)F)c(NS(=O)(=O)CCCF)cc3[nH]2)c1N` [Example 4-24-029, N-[2-[5-amino-1-[6-(2-fluorophenoxy)-4-methylpyridin-3-yl]pyrazole-4-carbonyl]-5-(2,2-difluoroethoxy)-1H-indol-6-yl]-3-fluoropropane-1-sulfonamide], for which the IC50 at human Yes1 enzyme (setting [1]) was found to be 1.6 nM; at human Lck enzyme (setting [1]) it was 29 nM; at human Src enzyme (setting [1]), 54 nM.

Take `Cc1cc(Oc2ccccc2F)ccc1-n1ncc(C(=O)c2cc3cc(OCC(F)F)c(N4C(=O)NC5(CCNC5)C4=O)cc3[nH]2)c1N` (stereo not drawn) [Example 5-1-349, 3-[2-[5-amino-1-[4-(2-fluorophenoxy)-2-methylphenyl]pyrazole-4-carbonyl]-5-(2,2-difluoroethoxy)-1H-indol-6-yl]-1,3,7-triazaspiro [4.4]nonane-2,4-dione]: the values for the IC50 at human Yes1 enzyme, at human Lck enzyme and on human Src enzyme were 0.51 nM, 2.5 nM and 6.9 nM, respectively.

As for `Cc1cc(Oc2ccccc2F)cc(F)c1-n1ncc(C(=O)c2cc3cc(OCC(F)F)c(NC4CCN(S(C)(=O)=O)CC4)cc3[nH]2)c1N` [Example 4-23-028, [5-amino-1-[2-fluoro-4-(2-fluorophenoxy)-6-methylphenyl]pyrazol-4-yl]-[5-(2,2-difluoroethoxy)-6-[(1-methylsulfonylpiperidin-4-yl)amino]-1H-indol-2-yl]methanone], the IC50 on human Yes1 enzyme (setting [1]) worked out at 20 nM; on human Lck enzyme (setting [1]), 41 nM; at human Src enzyme (setting [1]) it was 70 nM.

In the case of `Cc1cc2cc(C(=O)c3cnn(-c4cnc(Oc5ccccc5F)cc4C)c3N)[nH]c2cc1NS(=O)(=O)c1cc(C#N)ccn1` [Example 5-1-478, N-[2-[5-amino-1-[6-(2-fluorophenoxy)-4-methylpyridin-3-yl]pyrazole-4-carbonyl]-5-methyl-1H-indol-6-yl]-4-cyanopyridine-2-sulfonainide], the IC50 worked out at 4.8 nM on human Yes1 enzyme (setting [1]), 77 nM on human Lck enzyme (setting [1]) and 280 nM at human Src enzyme (setting [1]).

Take `Cc1cc2cc(C(=O)c3cnn(-c4cnc(Oc5ccccc5F)cc4C)c3N)[nH]c2cc1NS(=O)(=O)c1cc(F)ccn1` [Example 5-1-505, N-[2-[5-amino-1-[6-(2-fluorophenoxy)-4-methylpyridin-3-yl]pyrazole-4-carbonyl]-5-methyl-1H-indol-6-yl]-4-fluoropyridine-2-sulfonamide]: the IC50 was 2.5 nM on human Yes1 enzyme (setting [1]), 68 nM at human Lck enzyme (setting [1]) and 470 nM at human Src enzyme (setting [1]).

Consider `Cc1cc(Oc2c(F)cccc2F)ncc1-n1ncc(C(=O)c2cc3cc(OCC(F)F)c(N4CCCS4(=O)=O)cc3[nH]2)c1N` [Example 4-25-011, [5-amino-1-[6-(2,6-difluorophenoxy)-4-methylpyridin-3-yl]pyrazol-4-yl]-[5-(2,2-difluoroethoxy)-6-(1,1-dioxo-1,2-thiazolidin-2-yl)-1H-indol-2-yl]methanone], for which the IC50 is 1.4 nM on human Yes1 enzyme (setting [1]), 4.1 nM on human Lck enzyme (setting [1]) and 11 nM on human Src enzyme (setting [1]).

For `Cc1cc(Oc2c(F)cccc2F)ncc1-n1ncc(C(=O)c2cc3cc(F)c(N4CCN(S(C)(=O)=O)CC4)cc3[nH]2)c1N` [Example 5-1-099], the results for the IC50 at human Yes1 enzyme, on human Lck enzyme and at human Src enzyme were 2.1 nM, 2.2 nM and 11 nM, respectively.

Turning to `Cc1cc(Oc2ccccc2F)ncc1-n1ncc(C(=O)c2cc3cc(F)c(NS(=O)(=O)CC(=O)N4CCCC4)cc3[nH]2)c1N` [Example 4-10-005, N-[2-[5-amino-1-[6-(2-fluorophenoxy)-4-methylpyridin-3-yl]pyrazole-4-carbonyl]-5-fluoro-1H-indol-6-yl]-2-oxo-2-pyrrolidin-1-ylethanesulfonamide], the IC50 stood at 2.8 nM at human Yes1 enzyme (setting [1]), 16 nM at human Lck enzyme (setting [1]) and 58 nM at human Src enzyme (setting [1]).

As to `Cc1cc(Oc2c(F)cccc2F)ncc1-n1ncc(C(=O)c2cc3cc(F)c(NS(=O)(=O)CCCF)cc3[nH]2)c1N` [Example 4-2-021, N-[2-[5-amino-1-[6-(2,6-difluorophenoxy)-4-methylpyridin-3-yl]pyrazole-4-carbonyl]-5-fluoro-1H-indol-6-yl]-3-fluoropropane-1-sulfonamide], the values for the IC50 on human Yes1 enzyme (setting [1]), at human Lck enzyme (setting [1]) and on human Src enzyme (setting [1]) were 1.5 nM, 8.6 nM and 43 nM, respectively.
